Test results as given in US20100197625A1, “SYNTHETIC LIPOPHILIC INOSITOL GLYCANS FOR TREATMENT OF CANCER AND GLUCOSE-METABOLISM DISORDERS” (priority 2006, published 2010).

Tests used:
[1] = test system: human umbilical vein endothelial cells (HUVEC); test: Cell death of human umbilical vein endothelial cells; format: cell-based; conditions: in 1 hour, with IG-1
[2] = test system: native rat adipocytes; test: Lipogenesis in native rat adipocytes; format: cell-based
Protocol: Adipocytes were isolated from epididymal fat pads dissected from freshly sacrificed male Long-Evans rats and incorporation of [6-^3H]-glucose into triglycerides in response to treatment with inositol glycans or insulin was measured as previously described (Chakraborty, N. and M. d'Alarcao, Bioorganic & Medicinal Chemistry 13 (2005) 6732-6741).

[3] = test system: human normal cultured cells; test: Proliferation of human normal cultured cells; format: cell-based; conditions: 1-100 μM, data not shown
Protocol: Human primary culture cells, dermal fibroblasts, epidermal keratinocytes and umbilical vein endothelial cells were purchased from Cell Applications (San Diego, Calif., USA) and cultured according to the manufacturer's instructions.
(§1) Cell proliferation assays were performed with the CellTiter 96 AQueous One Solution Cell Proliferation Assay kit according to the manufacturer's instructions (Promega, Madison, Wis., USA). Briefly, 5×10^3 cells/well in medium were placed onto 96-well plates. IGs were added to cellular cultures at final concentrations of 0, 1, 10, and 100 μM. Cultures were incubated for 3 days or 7 days and then added to 20 μL/well of CellTiter 96 AQueous One Solution Reagent, which contains a tetrazolium compound, 3-(4,5-dimethylthiazol-2-yl)-5-(3-carboxymethoxyphenyl)-2-(4-sulfophenyl)-2H-tetrazolium, an inner salt; MTS was added to the culture medium. After incubating the plate for 1 h in a CO2 incubator, absorbance at 490 nm was recorded with a 96-well plate reader.

[4] = test system: Panc-1 cells; test: Cell proliferation / cell death assay, Panc-1; format: cell-based, human; conditions: Panc-1, after 3 days (72 hours)
Protocol: (§2) Human pancreatic cancer cell lines (Panc-1, MiaPaca2, BXPC3, Aspc 1), human hepatoma cell line (HuH7), human gastric cancer cell lines (AGS, MKN45), human colon cancer cell line (CoCM-1), human mammary cancer cell line (MCF-7), human neuroblastoma (SH-SY5Y), human prostate cancer cells (PC3), and murine Ehrlich ascites cancer cells and mouse 3T3-L1 fibroblasts were obtained from American Type Culture Collection (Rockville, Md., USA). The cancer cells were cultured in RPMI 1640 containing 10% fetal calf serum. Cultures were maintained at 37° C. in a humidified atmosphere of 5% CO2.
as §1, with “Cultures were incubated for 3 days or 7 days and then added to 20 μL/well” left out

[5] = test system: human neuroblastoma (SH-SY5Y); test: Cell proliferation / cell death assay, SH-SY5Y; format: cell-based; conditions: in 24 hours after treatment
Protocol: as §2
as §1, with “Cultures were incubated for 3 days or 7 days and then added to 20 μL/well” left out

[6] = test system: human prostate cancer cells (PC3); test: Cell proliferation / cell death assay, PC3; format: cell-based; conditions: PC3, in 24 hours after treatment
Protocol: as §2
as §1, with “Cultures were incubated for 3 days or 7 days and then added to 20 μL/well” left out

[7] = test system: human hepatoma (HuH7); test: Cell proliferation / cell death assay, HuH7; format: cell-based; conditions: HuH7, in 24 hours after treatment
Protocol: as §2
as §1, with “Cultures were incubated for 3 days or 7 days and then added to 20 μL/well” left out

[8] = test system: 3T3-L1 adipocytes; test: Lipogenesis in 3T3-L1 adipocytes; format: cell-based, mouse; conditions: 100 μM
Protocol: (§3) 3T3-L1 fibroblasts were maintained in Dulbecco's modified Eagle's medium (DMEM) with 25 mM glucose plus 10% fetal bovine serum (FBS). Following 2 days at confluence, differentiation was initiated by the addition of DMEM containing 10% FBS, 167 nM insulin, […] dexamethasone, and 0.5 mM isobutylmethylxanthine. Three days later, the medium was replaced with DMEM plus 10% FBS and 167 nM insulin. After 2 more days, the medium was switched to DMEM plus 10% fetal bovine serum. Adipocytes were used 6-14 days after completion of the differentiation protocol, when >90% of the cells expressed the adipocyte phenotype. Prior to experiments, cells were washed two times with DMEM medium containing 5 mM glucose, 0.2% bovine serum albumin, 25 mM Hepes (pH 7.4), 100 units/ml penicillin, 100 units/ml streptomycin and 0.29 mg/ml glutamine, and were incubated in the same medium for 2 h. Glycogen and lipid synthesis were measured in 24-well dishes. […] The lipids were then extracted overnight with 5 ml of Betafluor (National Diagnostics), and glucose incorporation into lipid was measured by scintillation counting. 400 μl of the cell suspension was added to 600 μl of 50% KOH, and glycogen was precipitated and radioactivity was counted by a liquid scintillation counter

[9] = test system: 3T3-L1 adipocytes; test: Glycogen synthesis in 3T3-L1 adipocytes; format: cell-based, mouse; conditions: 100 μM
Protocol: as §3

SMILES	stimulation of lipogenesis ([2]; native rat adipocytes, 40 μM)	proliferation of human normal cultured cells [3]	cell death [4]	also measured
CCCCC/C=C\C/C=C\C/C=C\C/C=C\CCCC(=O)O[C@H](COCCCCCCCCCCCCCCCCCC)COP(=O)(O)O [AAPA2, 1-0-alkyl (18:0)-2-0-acyl-(20:4)-sn-glycerol-phosphate]	–	–	–	effect on rapid cell death of HUVEC induced by IG-1 [1]: inhibits this rapid cell death
CCCCCCCCCCCCCCCC(=O)OC1[C@H](O)C(O)C(O)[C@H](O)[C@@H]1O[C@H]1OC(CO)[C@@H](O)[C@H](O)C1N (stereo partly drawn) [IG13, 2-Amino-2-deoxy-α-D-glucopyranosyl-(1→6)-1-palmitoyl-D-myo-inositol]	little or no lipogenesis	did not affect the proliferation	induced cancer cell death	–
CCCCCCCCCCCCCCCC(=O)O[C@H]1[C@@H](O)[C@H](O)[C@@H](O)[C@H](O)[C@H]1O[C@H]1O[C@H](CO)[C@@H](O)[C@H](O)[C@H]1N [IG14, 2-Amino-2-deoxy-α-D-glucopyranosyl-(1→3)-2-palmitoyl-D-myo-inositol]	little or no lipogenesis	did not affect the proliferation	induced cancer cell death	–
CCCCCCCCCCCCCCCC(=O)O[C@@H]1C(O)C(O)[C@H](O)[C@H](O[C@H]2OC(CO)[C@@H](O)[C@H](O)C2N)C1OP(=O)(O)O (stereo partly drawn) [IG2, 2-Amino-2-deoxy-α-D-glucopyranosyl-(1→6)-2-palmitoyl-D-myo-inositol-1-phosphate]	–	no effect on the proliferation	–	cancer cell death [5]: induced cancer cell death; EC50 ([2]; Adipocyte, rat isolated adipocytes, fit to receptor binding model, read-out: EC50 value for stimulation of lipogenesis): 2.5 µM; Emax ([2]; Adipocyte, rat isolated adipocytes, stimulation of lipogenesis, read-out: Amax (maximal effect)): 37%; stimulation of lipogenesis ([2]; rat isolated adipocytes, concentration series): stimulated lipogenesis; cancer cell death [6]: induced cancer cell death; cancer cell death [7]: induced cancer cell death
CCCCCCCCCCCCCCCC(=O)O[C@@H]1C(O)C(O[C@H]2OC(CO)[C@@H](O)[C@H](O)C2N)[C@@H](O)[C@@H](O)C1O (stereo partly drawn) [IG15, 2-Amino-2-deoxy-α-D-glucopyranosyl-(1→3)-1-palmitoyl-D-myo-inositol]	little or no lipogenesis	did not affect the proliferation	induced cancer cell death	lipogenesis [8]: stimulates; glycogen synthesis [9]: stimulates
